Data taken from PubChem BioAssay AID1249 (Columbia University Molecular Screening Center, 2008).
Calls of active or inactive are those of the source. The rule behind the calls is not given here.

Tests used:
[1] = modifiers of cytoskeleton assembly, confirmation, imaging, high-content imaging, retest and dose response (AID 1249); settings: cell-based imaging, cytoskeleton assembly phenotype, high content; for cell count: at 10 µM, stronger effect = lower value; for inhibition: at 2 µM, stronger effect = higher value;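 for all read-outs here: compound exposure lasted 24 h before fixation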;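 for inhibition: plate controls were untreated cells for no effect and reference compound treated cells for full effect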
[2] = tested on: cell-based imaging, cytoskeleton assembly phenotype, high content; test: as above

With `O=C1CC(c2cc(Br)ccc2F)c2cc3c(cc2N1)CCC3` (configuration not stated) the cell count [1] was 105% and the IC50 [2] was > 10 µM (inactive).
For `COc1ccccc1-n1cnc2cc(NCc3cccs3)ccc21`, the cell count [1] was 31.6% and the IC50 [2] was 3.24 µM.
`CCCCCOc1ccc(Br)cc1/C(C)=N/NC1=NCCN1` showed a cell count [1] of 19.4% and an IC50 [2] of 5.97 µM.
For `Cc1c(C(=O)OCC(C)C)[nH]c2c1C(=O)CC(c1ccco1)C2` (configuration not stated), the cell count [1] was 38.8% and the IC50 [2] was > 10 µM (inactive).
For `CCOc1cc(CNc2ccc3c(c2)OCCO3)cc(Br)c1OC`, the cell count [1] was 37.1% and the IC50 [2] was > 10 µM (inactive).
With `CCOC(=O)Nc1nc(-c2ccccc2)c(C(=O)c2ccccc2)s1` the cell count [1] was 53.7% and the IC50 [2] was > 10 µM (inactive).
`COc1cc(C2C3=C(Nc4ncnn42)c2ccccc2CC3)cc(OC)c1OC` (configuration not stated) showed a cell count [1] of 43.2% and an IC50 [2] of 5 µM.
Molecule `Cc1ccc(C(=O)OCn2ncc(Cl)c(Cl)c2=O)cc1` has a cell count [1] of 1.4% and an IC50 [2] of 3.08 µM.
In the case of `CCN(CC)c1ccc(-c2nn3c(-c4ccccc4OC)nnc3s2)cc1`, the cell count [1] is reported as 25.6% and the IC50 [2] is reported as 1.7 µM.
In the case of `Cc1cc(C)c(S(=O)(=O)Nc2ccc3c4c(cccc24)CC3)c(C)c1`, the cell count [1] is reported as 78.5% and the IC50 [2] is reported as > 10 µM (inactive).
Work on `CCOc1ccccc1C(=O)N1CCN(c2cccc(Cl)c2)CC1` yielded a cell count [1] of 36.6% and an IC50 [2] of 1.25 µM.
In the case of `Cc1cc(=O)oc2cc(OCC3CC(c4ccccc4Cl)=NO3)ccc12` (configuration not stated), the cell count [1] is reported as 92.5% and the IC50 [2] is reported as > 10 µM (inactive).
In the case of `COc1ccc(C2=Nn3c(nnc3-c3ccc(OC)cc3)SC2)cc1`, the cell count [1] is reported as 91.1% and the IC50 [2] is reported as > 10 µM (inactive).
For `CCOC(=O)c1[nH]c(C)c(C(=O)c2cc(F)ccc2F)c1C`, the cell count [1] was 48.7% and the IC50 [2] was > 10 µM (inactive).
In the case of `CCCCN1C(=O)/C(=C/C=C2\N(C)c3ccccc3C2(C)C)SC1=S`, the cell count [1] is reported as 94.3% and the IC50 [2] is reported as > 10 µM (inactive).
With `Cc1ccc(NC2=C/C(=N\S(=O)(=O)c3cccs3)c3ccccc3C2=O)c(C)c1` the cell count [1] was 79.8% and the IC50 [2] was > 10 µM (inactive).
`CCN(CC)c1ccc2c(c1)OC(N)=C(C#N)C2c1cccnc1` (configuration not stated) showed a cell count [1] of 33.7% and an IC50 [2] of 0.625 µM.
With `CSc1nc(N(C)NC(=O)c2cccc(C)c2)c2ccccc2n1` the cell count [1] was 31.6% and the IC50 [2] was > 10 µM (inactive).
In the case of `COC(=O)C1CN(C#N)N(c2ccc(Cl)cc2)C12c1ccccc1-c1ccccc12` (configuration not stated), the cell count [1] is reported as 85.3% and the IC50 [2] is reported as > 10 µM (inactive).
In the case of `C=CCSc1nc2ccccc2n1C(=O)/C=C/c1cc(OC)c(OC)c(OC)c1`, the cell count [1] is reported as 102% and the IC50 [2] is reported as > 10 µM (inactive).
For `COc1cc(-c2nnc3n2N=C(c2ccccc2)CS3)cc(OC)c1OC`, the cell count [1] was 90.7% and the IC50 [2] was > 10 µM (inactive).
In the case of `CC1=C([N+](=O)[O-])C(c2cccc(Br)c2)C2=C(N1)c1ccccc1C2=O` (configuration not stated), the cell count [1] is reported as 30.8% and the IC50 [2] is reported as 2.65 µM.
In the case of `O=C(COc1ccccc1-c1ccccc1)N/N=C/c1cccc2ccccc12`, the cell count [1] is reported as 85% and the IC50 [2] is reported as > 10 µM (inactive).
With `CCn1c2ccccc2c2cc(NC(=O)c3cc(OC)c(OC)c(OC)c3)ccc21` the cell count [1] was 32.4% and the IC50 [2] was 1.73 µM.
In the case of `O=Cc1cc2ccccc2nc1SCc1ccc(Cl)c(Cl)c1`, the cell count [1] is reported as 94.3% and the IC50 [2] is reported as > 10 µM (inactive).
Work on `Cc1ccc(Nc2nc(-c3c(C)nc4ccccn34)cs2)cc1` yielded a cell count [1] of 31.8% and an IC50 [2] of 1.37 µM.
In the case of `CC(C)Oc1ccccc1C1CC(=O)Nc2cc3c(cc21)OCCO3` (configuration not stated), the cell count [1] is reported as 88.5% and the IC50 [2] is reported as > 10 µM (inactive).
In the case of `CC(/C=N/NC(=O)c1cc(-c2ccc(Cl)cc2)nc2ccccc12)=C\c1ccco1`, the cell count [1] is reported as 115% and the IC50 [2] is reported as > 10 µM (inactive).
With `COc1ccc(NC(=O)/C(Cl)=C(/Cl)S(=O)Cc2ccc(C)cc2)cn1` (configuration not stated) the cell count [1] was 63.4% and the IC50 [2] was > 10 µM (inactive).
For `Cc1cc(C)c2nc(SCC(=O)N3CC(=O)Nc4ccccc43)c(C#N)cc2c1`, the cell count [1] was 51.1% and the IC50 [2] was > 10 µM (inactive).
With `CCSc1nc2ccccc2n1C(=O)/C=C\c1ccc(OC)c(OC)c1` the cell count [1] was 111% and the IC50 [2] was > 10 µM (inactive).
For `N#CC1=C2SCC(O)(c3ccccc3)N2C(=O)CC1c1cccs1` (configuration not stated), the cell count [1] was 26.4% and the IC50 [2] was > 10 µM (inactive).
For `COc1cc2c3nnc(-c4ccc(F)cc4)c-3cn(Cc3ccccc3)c2cc1OC`, the cell count [1] was 86.3% and the IC50 [2] was > 10 µM (inactive).
With `O=C(c1ccco1)N1CCN(C(=O)N2c3ccccc3Sc3ccccc32)CC1` the cell count [1] was 42% and the IC50 [2] was > 10 µM (inactive).
For `O=C(O)C1CCCCC1C(=O)Nc1cc(Cl)ccc1Cl` (configuration not stated), the cell count [1] was 94.2% and the IC50 [2] was > 10 µM (inactive).
In the case of `CCCC1=Nc2cc(C(=O)NCCCOCC)ccc2Sc2ccccc21`, the cell count [1] is reported as 37.3% and the IC50 [2] is reported as 0.873 µM.
In the case of `CCOc1cc(/C=N\NC(=O)Cc2ccccc2)ccc1OCC(=O)Nc1ccc(C)c(C)c1`, the inhibition [1] is reported as -0.8% (inactive).
With `Cn1c(SCc2nc(-c3ccc(Cl)cc3)no2)nnc1-c1cccs1` the inhibition [1] was 16.1% (inactive).
With `CCN1CCC2(CC1)C(C#N)=C(N)Oc1c2sc2nc(C)cc(C)c12` the inhibition [1] was -0.7% (inactive).
In the case of `CCN1C(=O)c2cccc3c(S(=O)(=O)NCc4ccccn4)ccc1c23`, the inhibition [1] is reported as -20.8% (inactive).
In the case of `Cc1cc(C)cc(NC(=O)CC2NCCNC2=O)c1` (configuration not stated), the inhibition [1] is reported as -1.4% (inactive).
With `COc1ccc(Nc2cc(C(=O)NCCCN3CCOCC3)c3ccccc3n2)cc1OC` the inhibition [1] was 4.3% (inactive).
For `CCC(=O)Nc1cccc(NC(=O)c2cc3ccccc3o2)c1`, the inhibition [1] was -5.6% (inactive).
With `Oc1ccc(N2CCN(c3ncnc4sc5c(c34)CCC5)CC2)cc1` the inhibition [1] was -5.1% (inactive).
With `CCNCC(O)COCC(O)CNCC` (configuration not stated) the inhibition [1] was 5.1% (inactive).
With `COc1ccc(C(c2sc3ncnn3c2O)N2CC(C)OC(C)C2)cc1OC` (configuration not stated) the inhibition [1] was 5% (inactive).
With `NC1=CC(=O)c2cccc3cccc1c23` the inhibition [1] was -0.4% (inactive).
With `Cc1oc2cc3c(C(=O)N4CCCCC4)c(C)oc3cc2c1C(=O)N1CCCCC1` the inhibition [1] was -4.7% (inactive).
In the case of `Cc1nc2ccccc2n1CCCOc1ccccc1`, the inhibition [1] is reported as 1% (inactive).
For `COc1ccc(CN2CCCCC2C(=O)Nc2ccc(OC)c(OCC(C)C)c2)cc1OC` (configuration not stated), the inhibition [1] was -2.9% (inactive).
For `C=CCN1C(=O)/C(=C2/Sc3ccccc3N2CCCS(=O)(=O)O)SC1=S`, the inhibition [1] was 0.3% (inactive).
In the case of `N=c1c2c(-c3ccccc3)c(-c3ccccc3)n(Cc3ccccc3)c2ncn1CCCn1ccnc1`, the inhibition [1] is reported as -9.6% (inactive).
With `COc1ccc(C(C)(C)C)cc1S(=O)(=O)N1CCN(C)CC1` the inhibition [1] was -1.6% (inactive).
In the case of `COc1ccc(C(=O)C(CN2CCOCC2)c2ccccc2)cc1` (configuration not stated), the inhibition [1] is reported as 1.1% (inactive).
For `O=C(Nc1ccccc1)c1nnsc1S(=O)c1ccc(Cl)cc1` (configuration not stated), the inhibition [1] was -0.9% (inactive).
With `COc1cccc(CNC(=O)C(=O)NCC2CCCO2)c1` (configuration not stated) the inhibition [1] was -16.1% (inactive).
For `Cc1ccc(NS(=O)(=O)c2cc(C(=O)NCCSC3CCCCC3)ccc2C)cc1`, the inhibition [1] was -1.3% (inactive).
For `Cc1ccc(-c2nn(C(C)(C)C)c3ncnc(N)c23)cc1`, the inhibition [1] was -7.8% (inactive).
For `Cc1cccc(NC(=O)CSc2nc3ccc(NC(=O)CSc4nnnn4-c4ccccc4)cc3s2)c1C`, the inhibition [1] was 2.9% (inactive).
For `CCC(C)C1C(C#N)=C(N)Oc2n[nH]c(-c3ccccc3)c21` (configuration not stated), the inhibition [1] was 1.1% (inactive).
In the case of `Cc1cccc(N=C2NC(=O)CS2)c1C`, the inhibition [1] is reported as 7% (inactive).
For `COc1ccc(-c2cc(C(=O)Nc3cc(C)n(Cc4ccc(Cl)cc4)n3)no2)cc1OC`, the inhibition [1] was 6.8% (inactive).
In the case of `CC1CC(=O)NN=C1c1ccc(NCCO)c([N+](=O)[O-])c1` (configuration not stated), the inhibition [1] is reported as -4.6% (inactive).
In the case of `CCOC(=O)C1=C(SCC)c2cc3c(n2C1=O)CCCC3`, the inhibition [1] is reported as 8.4% (inactive).
For `COc1cc(C2Nc3ccc4ncccc4c3C3=C2C(=O)CCC3)cc(OC)c1O` (configuration not stated), the inhibition [1] was 1.2% (inactive).
For `Cc1ccc2nc(SCC(=O)Nc3cc(C(F)(F)F)ccc3N3CCOCC3)[nH]c2c1`, the inhibition [1] was -6.4% (inactive).
In the case of `O=[N+]([O-])c1cnccc1Nc1ccc(F)cc1`, the inhibition [1] is reported as 4.7% (inactive).
For `O=C(CF)NC(Nc1cccc2cccnc12)C(Cl)(Cl)Cl` (configuration not stated), the inhibition [1] was -8.8% (inactive).
For `Cc1cccc(NC(=O)CC2SC(=O)N(c3ccccc3)C2=O)c1` (configuration not stated), the inhibition [1] was 1.5% (inactive).
In the case of `COc1ccc(S(=O)(=O)n2ccc(-c3ccc(OCCN(C)c4ccccn4)cc3)n2)cc1`, the inhibition [1] is reported as 11.9% (inactive).
For `CCN(CC)C(=O)CN(c1ccc(Cl)cc1)S(=O)(=O)c1ccccc1`, the inhibition [1] was 0.4% (inactive).
For `Cc1noc(C)c1S(=O)(=O)N1CCC2(CC1)OCCO2`, the inhibition [1] was -7.2% (inactive).
With `Cc1c(C(=O)N2CCN(c3ccccc3F)CC2)sc2ncn(CC(=O)N3CCOCC3)c(=O)c12` the inhibition [1] was -3.2% (inactive).
In the case of `COc1ccc(NC(=O)N2CCn3c2nc2ccccc23)cc1`, the inhibition [1] is reported as 5% (inactive).
For `O=C(/C(=C/c1ccc(Cl)cc1)c1nc2ccccc2[nH]1)c1cccs1`, the inhibition [1] was -2.9% (inactive).
In the case of `CCOC(=O)c1cc2c(ccn2C)n1Cc1ccccc1C`, the inhibition [1] is reported as 2.4% (inactive).
In the case of `Nc1ccc2nc(-c3ccc(N)c(Cl)c3)[nH]c2c1`, the inhibition [1] is reported as 11.4% (inactive).
In the case of `Cc1cccc(OCC(=O)Nc2cc(C)ccc2O)c1`, the inhibition [1] is reported as -8.8% (inactive).
With `C=CCCCOc1ccc(C(=O)O)cc1` the inhibition [1] was -2.1% (inactive).
With `COc1cc2c(cc1NS(=O)(=O)N1CCCC1)oc1ccccc12` the inhibition [1] was 2.5% (inactive).
In the case of `COc1ccc2[nH]c(=O)c(CN(Cc3ccc4c(c3)OCO4)C(C)=O)cc2c1`, the inhibition [1] is reported as 5.1% (inactive).
In the case of `CCOC(=O)Cc1cc(-c2ccc(O)cc2)nc2ccc3ccccc3c12`, the inhibition [1] is reported as -11.7% (inactive).
With `N#Cc1c(NCc2ccccc2)ccnc1NCc1cccnc1` the inhibition [1] was 1.2% (inactive).
With `Cn1c(NC(=O)C2c3ccccc3Oc3ccccc32)cc(=O)n(C)c1=O` the inhibition [1] was -0.3% (inactive).
For `Cc1nn(S(=O)(=O)c2ccccc2)c(C)c1Sc1ccc([N+](=O)[O-])cc1`, the inhibition [1] was 2.5% (inactive).
In the case of `COC(=O)COc1ccc(=O)n(-c2ccccc2)n1`, the inhibition [1] is reported as -8.8% (inactive).
With `CCOC(=O)c1ccc(CNC(=O)CCC(=O)O)cc1` the inhibition [1] was -7% (inactive).
In the case of `CCOC(=O)c1ccc(N2C(=O)CC(N3CCC(O)(c4ccc(Br)cc4)CC3)C2=O)cc1` (configuration not stated), the inhibition [1] is reported as 5.5% (inactive).
With `Cc1cc(NC(=O)CSc2nc(-c3cccs3)cc(C(F)(F)F)n2)no1` the inhibition [1] was -6.4% (inactive).
For `CN1C(=O)C(C(=O)NC(C)(C)C)C2c3ccccc3OC13CCCCC23` (configuration not stated), the inhibition [1] was 1.7% (inactive).
For `COc1ccccc1-n1cnc2cc(NCc3ccco3)ccc21`, the inhibition [1] was 10.7% (inactive).
